The target of one test is Carbonic anhydrase 14 (Homo sapiens, UniProt Q9ULX7).
Carbonic anhydrase 14, sequence (Q9ULX7 whole entry): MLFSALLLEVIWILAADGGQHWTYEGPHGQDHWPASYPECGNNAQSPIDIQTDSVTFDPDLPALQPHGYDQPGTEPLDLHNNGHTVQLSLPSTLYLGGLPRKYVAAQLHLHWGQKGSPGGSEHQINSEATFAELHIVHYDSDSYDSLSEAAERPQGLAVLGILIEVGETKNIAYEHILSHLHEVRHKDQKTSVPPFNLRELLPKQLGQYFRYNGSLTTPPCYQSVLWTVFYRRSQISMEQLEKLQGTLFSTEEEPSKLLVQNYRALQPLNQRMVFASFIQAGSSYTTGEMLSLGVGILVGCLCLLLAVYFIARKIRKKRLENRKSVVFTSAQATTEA
In general, Ki refers to a dissociation constant, usually derived from enzyme kinetics or from competition with a known ligand. Lower therefore signals higher affinity. `NS(=O)(=O)c1ccc(S(=O)(=O)Nc2cccc3c(Cl)c[nH]c23)cc1`: the affinity, expressed as Ki, was 104 nM. That is a sub-micromolar value.

The target in another test is Carbonic anhydrase 9 (Homo sapiens, UniProt Q16790).
Compound `CC1CC=NN1c1ccncc1S(N)(=O)=O` (configuration not stated) yielded an inhibition constant (Ki) of 7.8 nM. That is a single-digit nanomolar value.
Compound `NS(=O)(=O)c1cnccc1Oc1ccc(F)cc1` displayed a Ki of 7.9 nM. The Ki values of the last two compounds are within 1.5-fold of each other.
As for `NS(=O)(=O)c1cnccc1Sc1nc2ccc([N+](=O)[O-])cc2s1`, the inhibition constant (Ki) came out at 9.6 nM.
Still for that read-out and setting: as for `C#CCSc1ccncc1S(N)(=O)=O`, the figure is 6.3 nM; as for `N#Cc1ccc(Oc2ccncc2S(N)(=O)=O)cc1`, 7.2 nM.
With `NS(=O)(=O)c1cnccc1Sc1nnns1`, the Ki amounted to 7.7 nM. The Ki values of the last two compounds are within 1.5-fold of each other.

For the origin of these results see ChEMBL document CHEMBL1165874, “Carbonic anhydrase inhibitors: synthesis and inhibition of the human cytosolic isozymes I and II and transmembrane isozymes IX, XII (cancer-associated) and XIV with 4-substituted 3-pyridinesulfonamides” (Eur J Med Chem, 2010).
